Legend:
Test in all cases: relative viability (nuclei count vs DMSO), 5 days (fraction); higher = more cells survive
[1] = tested on: NCI-H441
In short: (§1)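 Five library-drug doses in √10 steps were combined with a fixed anchor-drug dose, or a single drug was given alone, by pin tool to lung cancer cell lines in 1536-well plates the day after seeding. Nuclei were stained and counted after 5 days. Relative viability is the nuclei count in treated wells over that in vehicle wells, taken as the median of duplicate plates.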

[2] = tested on: NCI-H2085
In short: as §1

[3] = tested on: SW 900
In short: as §1

[4] = tested on: H3255
In short: as §1

[5] = tested on: NCI-H2170
In short: as §1

[6] = tested on: LOU-NH91
In short: as §1

[7] = tested on: PC-14
In short: as §1

[8] = tested on: NCI-H1993
In short: as §1

[9] = tested on: 201T
In short: as §1

[10] = tested on: NCI-H1793
In short: as §1

[11] = tested on: COR-L23
In short: as §1

[12] = tested on: NCI-H3122
In short: as §1

[13] = tested on: HCC-44
In short: as §1

[14] = tested on: NCI-H2405
In short: as §1

[15] = tested on: NCI-H647
In short: as §1

[16] = tested on: NCI-H520
In short: as §1

[17] = tested on: NCI-H1734
In short: as §1

[18] = tested on: EPLC-272H
In short: as §1

[19] = tested on: NCI-H2347
In short: as §1

[20] = tested on: NCI-H1650
In short: as §1

[21] = tested on: NCI-H2023
In short: as §1

[22] = tested on: RERF-LC-KJ
In short: as §1

SMILES: CC1(C)CCC(c2ccc(Cl)cc2)=C(CN2CCN(c3ccc(C(=O)NS(=O)(=O)c4ccc(N[C@H](CCN5CCOCC5)CSc5ccccc5)c(S(=O)(=O)C(F)(F)F)c4)cc3)CC2)C1 [Navitoclax] + O=C(CCCCCCC(=O)Nc1ccccc1)NO [Vorinostat] (partner 1 µM)
- relative viability ([1]; first compound 0.005 µM): 0.651
- relative viability ([1]; first compound 0.01581 µM): 0.961
- relative viability ([1]; first compound 0.05 µM): 0.982
- relative viability ([1]; first compound 0.1581 µM): 0.694
- relative viability ([1]; first compound 0.5 µM): 0.725
- relative viability ([2]; first compound 0.005 µM): 0.817
- relative viability ([2]; first compound 0.01581 µM): 0.998
- relative viability ([2]; first compound 0.05 µM): 0.568
- relative viability ([2]; first compound 0.1581 µM): 0.844
- relative viability ([2]; first compound 0.5 µM): 0.834
- relative viability ([3]; first compound 0.005 µM): 0.432
- relative viability ([3]; first compound 0.01581 µM): 0.573
- relative viability ([3]; first compound 0.1581 µM): 0.478
- relative viability ([3]; first compound 0.5 µM): 0.365
- relative viability ([4]; first compound 0.005 µM): 0.787
- relative viability ([4]; first compound 0.01581 µM): 0.958
- relative viability ([4]; first compound 0.05 µM): 0.874
- relative viability ([4]; first compound 0.1581 µM): 0.794
- relative viability ([4]; first compound 0.5 µM): 0.586
- relative viability ([5]; first compound 0.005 µM): 0.818
- relative viability ([5]; first compound 0.01581 µM): 0.926
- relative viability ([5]; first compound 0.05 µM): 0.736
- relative viability ([5]; first compound 0.1581 µM): 0.771
- relative viability ([5]; first compound 0.5 µM): 0.622
- relative viability ([6]; first compound 0.005 µM): 0.956
- relative viability ([6]; first compound 0.01581 µM): 0.925
- relative viability ([6]; first compound 0.05 µM): 0.791
- relative viability ([6]; first compound 0.1581 µM): 0.639
- relative viability ([6]; first compound 0.5 µM): 0.437
- relative viability ([7]; first compound 0.005 µM): 0.746
- relative viability ([7]; first compound 0.01581 µM): 0.794
- relative viability ([7]; first compound 0.05 µM): 0.59
- relative viability ([7]; first compound 0.1581 µM): 0.712
- relative viability ([7]; first compound 0.5 µM): 0.687
- relative viability ([8]; first compound 0.005 µM): 0.74
- relative viability ([8]; first compound 0.01581 µM): 0.81
- relative viability ([8]; first compound 0.05 µM): 1
- relative viability ([8]; first compound 0.1581 µM): 0.708
- relative viability ([8]; first compound 0.5 µM): 0.703
- relative viability ([9]; first compound 0.005 µM): 1.05
- relative viability ([9]; first compound 0.01581 µM): 1.12
- relative viability ([9]; first compound 0.05 µM): 0.89
- relative viability ([9]; first compound 0.1581 µM): 0.937
- relative viability ([9]; first compound 0.5 µM): 1.02
- relative viability ([10]; first compound 0.005 µM): 0.744
- relative viability ([10]; first compound 0.01581 µM): 0.873
- relative viability ([10]; first compound 0.1581 µM): 0.667
- relative viability ([10]; first compound 0.5 µM): 0.444
- relative viability ([11]; first compound 0.005 µM): 0.475
- relative viability ([11]; first compound 0.01581 µM): 0.535
- relative viability ([11]; first compound 0.05 µM): 0.425
- relative viability ([11]; first compound 0.1581 µM): 0.386
- relative viability ([11]; first compound 0.5 µM): 0.411
- relative viability ([12]; first compound 0.005 µM): 1.05
- relative viability ([12]; first compound 0.01581 µM): 0.807
- relative viability ([12]; first compound 0.05 µM): 1.06
- relative viability ([12]; first compound 0.1581 µM): 1.02
- relative viability ([12]; first compound 0.5 µM): 0.839
- relative viability ([13]; first compound 0.005 µM): 1.13
- relative viability ([13]; first compound 0.01581 µM): 1.07
- relative viability ([13]; first compound 0.05 µM): 0.988
- relative viability ([13]; first compound 0.1581 µM): 1.12
- relative viability ([13]; first compound 0.5 µM): 1.09
- relative viability ([14]; first compound 0.005 µM): 0.979
- relative viability ([14]; first compound 0.01581 µM): 1.09
- relative viability ([14]; first compound 0.05 µM): 1.11
- relative viability ([14]; first compound 0.1581 µM): 1
- relative viability ([14]; first compound 0.5 µM): 0.811
- relative viability ([15]; first compound 0.005 µM): 0.536
- relative viability ([15]; first compound 0.01581 µM): 0.52
- relative viability ([15]; first compound 0.05 µM): 0.673
- relative viability ([15]; first compound 0.1581 µM): 0.405
- relative viability ([15]; first compound 0.5 µM): 0.512
- relative viability ([16]; first compound 0.005 µM): 0.743
- relative viability ([16]; first compound 0.01581 µM): 0.817
- relative viability ([16]; first compound 0.05 µM): 0.704
- relative viability ([16]; first compound 0.1581 µM): 0.691
- relative viability ([16]; first compound 0.5 µM): 0.749
- relative viability ([17]; first compound 0.005 µM): 0.829
- relative viability ([17]; first compound 0.01581 µM): 0.938
- relative viability ([17]; first compound 0.1581 µM): 0.755
- relative viability ([17]; first compound 0.5 µM): 0.703
- relative viability ([18]; first compound 0.005 µM): 0.521
- relative viability ([18]; first compound 0.01581 µM): 0.561
- relative viability ([18]; first compound 0.05 µM): 0.292
- relative viability ([18]; first compound 0.1581 µM): 0.385
- relative viability ([18]; first compound 0.5 µM): 0.282
- relative viability ([19]; first compound 0.005 µM): 0.623
- relative viability ([19]; first compound 0.01581 µM): 0.628
- relative viability ([19]; first compound 0.05 µM): 0.534
- relative viability ([19]; first compound 0.1581 µM): 0.61
- relative viability ([19]; first compound 0.5 µM): 0.542
- relative viability ([20]; first compound 0.005 µM): 0.5
- relative viability ([20]; first compound 0.01581 µM): 0.66
- relative viability ([20]; first compound 0.05 µM): 0.671
- relative viability ([20]; first compound 0.1581 µM): 0.63
- relative viability ([20]; first compound 0.5 µM): 0.651
- relative viability ([21]; first compound 0.005 µM): 0.744
- relative viability ([21]; first compound 0.01581 µM): 0.76
- relative viability ([21]; first compound 0.05 µM): 0.659
- relative viability ([21]; first compound 0.1581 µM): 0.557
- relative viability ([21]; first compound 0.5 µM): 0.473
- relative viability ([22]; first compound 0.005 µM): 0.718
- relative viability ([22]; first compound 0.01581 µM): 0.654
- relative viability ([22]; first compound 0.05 µM): 0.645
- relative viability ([22]; first compound 0.1581 µM): 0.673
- relative viability ([22]; first compound 0.5 µM): 0.622
